Experimental data reported in the NIST ThermoML archive (doi:10.1021/je500381c).

Assay: xn = mol fraction of the nth substance listed
Settings: 100 kPa, Liquid; for mass density: Vibrating tube method

CCC12CC3CC(CC(C3)C1)C2 [1-ethyladamantane] + CCCCCCCO
Settings	mass density, 313.15 K [kg/m3]	mass density, 318.15 K [kg/m3]	mass density, 323.15 K [kg/m3]	mass density, 328.15 K [kg/m3]	mass density, 333.15 K [kg/m3]	viscosity, 313.15 K [mPa·s]	viscosity, 318.15 K [mPa·s]	viscosity, 323.15 K [mPa·s]	viscosity, 328.15 K [mPa·s]	viscosity, 333.15 K [mPa·s]
x2 = 0	–	919.21	915.62	912.01	908.41	3.878	3.478	3.134	2.838	2.581
x2 = 0.0999	–	909.33	905.62	901.91	898.19	3.516	3.135	2.811	2.531	2.291
x2 = 0.1999	–	899.51	895.76	892.03	888.26	3.376	3.003	2.687	2.413	2.178
x2 = 0.2988	–	889.49	885.74	881.97	878.19	3.286	2.922	2.608	2.338	2.106
x2 = 0.3991	–	878.91	875.17	871.39	867.59	3.251	2.882	2.569	2.299	2.066
x2 = 0.4998	871.61	867.88	864.13	860.35	856.55	3.235	2.859	2.54	2.267	2.033
x2 = 0.5995	860.15	856.43	852.69	848.92	845.11	3.275	2.884	2.555	2.271	2.03
x2 = 0.7	848.08	844.37	840.64	836.88	833.08	3.331	2.919	2.573	2.28	2.033
x2 = 0.8002	835.43	831.75	828.04	824.29	820.51	3.454	3.012	2.644	2.333	2.07
x2 = 0.9	822.17	818.53	814.85	811.13	807.38	3.589	3.12	2.728	2.399	2.121
